From patent US4582700A, “Products and processes” (Mallinckrodt, Inc., priority 1983, dated 1986)

Assay: Comparative 5 minute biodistribution of A-E and 201TlCl in rats
Format: in vivo, female Sprague-Dawley rats
Details: rat, i.v. 25 uCi/kg
Description: The following pharmacological studies were conducted on Complex (A), prepared by the method of Example 1; Complex (B), prepared by the method of Example 2; Complex (C) prepared by the method of Example 4; Complex (D) prepared by the method of Example 6; and Complex (E) prepared by the method of Example 7. Where indicated, Thallium-201 was used for comparative purposes.
The biodistribution of the experimental ^99m Tc(I) complexes in rats was compared with Thallium-201, currently the radionuclide of choice for myocardial perfusion imaging. Complex A was supplied as a vacuum-evaporated preparation and reconstituted with 0.9% Sodium Chloride, Injection, U.S.P. The ^99m Tc(I) complexes and ^201 TlCl solutions were diluted to concentrations of 12.5 uCi/ml with 0.9% Sodium Chloride, Injection, U.S.P. for dosing. Groups of 4-12 female Sprague-Dawley rats with body weights ranging from 180-231 g received single intraveneous injections of 25uCi/kg of Complex A, Complex B, Complex C, Complex D, Complex E, or ^201 TlCl.
Animals were sacrificed 5 minutes after dosing and radioactivity concentrations were determined by gamma scintillation spectroscopy in blood, heart, liver, lungs, kidney and skeletal muscle. As a measurement of selectivity of myocardial uptake, heart/blood, heart/liver and heart/lung tissue ratios were determined.

## [Cl][201Tl] [^201 TlCl]
5 min, blood
  Mean % Dose/g or ml, Blood: 0.26 % Dose/g or ml
5 min, heart
  Mean % Dose/g or ml, Heart: 6.35 % Dose/g or ml
5 min, kidney
  Mean % Dose/g or ml, Kidney: 6.53 % Dose/g or ml
5 min, liver
  Mean % Dose/g or ml, Liver: 1.01 % Dose/g or ml
5 min, lung
  Mean % Dose/g or ml, Lung: 4.69 % Dose/g or ml
5 min, skeletal muscle
  Mean % Dose/g or ml, Muscle: 0.82 % Dose/g or ml
5 min after dosing
  Mean Tissue Ratio Heart/Blood: 24.31
  Mean Tissue Ratio Heart/Liver: 6.31
  Mean Tissue Ratio Heart/Lung: 1.35
